Measurements reported in patent US6177253A, “Screening methods for the identification of anti-HIV compounds employing a cyclosporine-specific monoclonal antibody that cross-reacts with HIV-1 p24” (priority 1998, dated 2001).

Tests used:
Format in all cases: binding, BALB/c mice
C4 2.2 = assay: ELISA inhibition by singly modified Cs-derivatives, McAb C4 2.2; conditions: group V; McAb binds selectively to Thr^2 -Cs-BSA coating
Procedure: (§1) A second ELISA Procedure used conjugates of D-Lys^8 -Cs-BSA and Thr^2 -Cs-BSA for coating (Queeniaux et al., 1987b). An indirect detection system consisting of rabbit anti-mouse Ig followed by alkaline phosphates-conjugated goat anti-rabbit IgG was performed as previously described (Queenlaux et al., 1987b).
(§2) The binding of the 22 McAbs to these two Cs-BSA conjugates was also found to correlate well with their fine specificity patterns, as characterized with a set of 28-36 Cs derivatives. Typical ELISA curves showing McAb binding either to D-Lys^8 -Cs-BSA (panel A) or to Thr^2 -Ca-BSA (panel B) and inhibited by Cs or Cs derivatives are shown in FIGS. 8A-8B, D-Lys^8 -Cs-BSA was subsequently used for coating in the inhibition experiments, except for those McAbs binding selectively to Thr^2 -Cs-BSA (see Table 4 and FIGS. 7A-7C). An example of the binding of 26 Cs derivatives by McAbs belonging to each of the five specificity groups mentioned above is reported in Table 5. The results are expressed as the difference of IC50 (in log10) between the Cs derivatives and Cs. All Cs-derivatives used in this study were selected for having a conserved peptide ring conformation compared with CsA (as determined in NMR or X-ray diffraction).

H6 1.5 = assay: ELISA inhibition by singly modified Cs-derivatives, McAb H6 1.5; conditions: group III; D-Lys^8 -Cs-BSA coating
Procedure: as §1, §2

G7 1.1 = assay: ELISA inhibition by singly modified Cs-derivatives, McAb G7 1.1; conditions: group I; McAb binds selectively to Thr^2 -Cs-BSA coating
Procedure: as §1, §2

B11 1.4 = assay: ELISA inhibition by singly modified Cs-derivatives, McAb B11 1.4; conditions: group IV; D-Lys^8 -Cs-BSA coating
Procedure: as §1, §2

H4 1.3 = assay: ELISA inhibition by singly modified Cs-derivatives, McAb H4 1.3; conditions: group II; D-Lys^8 -Cs-BSA coating
Procedure: as §1, §2

Row | SMILES | log10 difference in the concentrations of Cs-derivatives and unmodified Cs required to achieve 50% inhibition in ELISA, McAb C4 2.2 (C4 2.2) [log10] | log10 difference in the concentrations of Cs-derivatives and unmodified Cs required to achieve 50% inhibition in ELISA, McAb H6 1.5 (H6 1.5) [log10] | log10 difference in the concentrations of Cs-derivatives and unmodified Cs required to achieve 50% inhibition in ELISA, McAb G7 1.1 (G7 1.1) [log10] | log10 difference in the concentrations of Cs-derivatives and unmodified Cs required to achieve 50% inhibition in ELISA, McAb B11 1.4 (B11 1.4) [log10] | log10 difference in the concentrations of Cs-derivatives and unmodified Cs required to achieve 50% inhibition in ELISA, McAb H4 1.3 (H4 1.3) [log10]
1 | CC[C@@H]1NC(=O)[C@H]([C@H](O)[C@H](C)C/C=C/CO)N(C)C(=O)[C@H](C(C)C)N(C)C(=O)[C@H](CC(C)C)N(C)C(=O)[C@H](CC(C)C)N(C)C(=O)[C@@H](C)NC(=O)[C@H](C)NC(=O)[C@H](CC(C)C)N(C)C(=O)[C@H](C(C)C)NC(=O)[C@H](CC(C)C)N(C)C(=O)CN(C)C1=O [MeBint^1 8'-hydroxy] | 0.0 | < 0.0 | 0.0 | < 0.0 | < 0.0
2 | C/C=C/C[C@@H](C)[C@@H](O)[C@H]1C(=O)N[C@@H](CC)C(=O)N(C)CC(=O)N(C)[C@@H](C)C(=O)N[C@@H](C(C)C)C(=O)N(C)[C@@H](CC(C)C)C(=O)N[C@@H](C)C(=O)N[C@H](C)C(=O)N(C)[C@@H](CC(C)C)C(=O)N(C)[C@@H](CC(C)C)C(=O)N(C)[C@@H](C(C)C)C(=O)N1C [MeLeu^4 MeAla] | 0.1 | 1.2 | < 0.0 | 0.3 | 1.8
3 | C/C=C/C[C@@H](C)[C@@H](O)[C@H]1C(=O)N[C@@H](CC)C(=O)N(C)CC(=O)N(C)[C@@H](Cc2ccccc2)C(=O)N[C@@H](C(C)C)C(=O)N(C)[C@@H](CC(C)C)C(=O)N[C@@H](C)C(=O)N[C@H](C)C(=O)N(C)[C@@H](CC(C)C)C(=O)N(C)[C@@H](CC(C)C)C(=O)N(C)[C@@H](C(C)C)C(=O)N1C [MeLeu^4 MePhe] | 0.0 | 2.3 | < 0.0 | 0.2 | 0.7
4 | C/C=C/C[C@@H](C)[C@@H](O)[C@H]1C(=O)N[C@@H](CC)C(=O)N(C)CC(=O)N(C)[C@@H](CC(C)C)C(=O)N[C@@H](C(C)C)C(=O)N(C)[C@@H](C)C(=O)N[C@@H](C)C(=O)N[C@H](C)C(=O)N(C)[C@@H](CC(C)C)C(=O)N(C)[C@@H](CC(C)C)C(=O)N(C)[C@@H](C(C)C)C(=O)N1C [MeLeu^6 McAla] | 1.2 | 2.7 | 0.7 | 0.0 | 0.9
5 | C/C=C/C[C@@H](C)[C@@H](O)[C@H]1C(=O)N[C@@H](CC)C(=O)N(C)CC(=O)N(C)[C@@H](CC(C)C)C(=O)N[C@@H](C(C)C)C(=O)N(C)[C@@H](Cc2ccccc2)C(=O)N[C@@H](C)C(=O)N[C@H](C)C(=O)N(C)[C@@H](CC(C)C)C(=O)N(C)[C@@H](CC(C)C)C(=O)N(C)[C@@H](C(C)C)C(=O)N1C [MeLeu^6 MePhe] | 1.3 | 1.7 | 0.1 | 0.0 | 1.2
6 | C/C=C/C[C@@H](C)[C@@H](O)[C@H]1C(=O)N[C@@H](CC)C(=O)N(C)CC(=O)N(C)[C@@H](CC(C)C)C(=O)N[C@@H](C(C)C)C(=O)N(C)[C@@H](CC(C)C)C(=O)N[C@@H](C)C(=O)N[C@H](C)C(=O)N(C)[C@@H](C)C(=O)N(C)[C@@H](CC(C)C)C(=O)N(C)[C@@H](C(C)C)C(=O)N1C [MeLeu^9 MeAla] | 1.9 | 0.0 | 1.4 | 1.7 | < 0.0
7 | C/C=C/C[C@@H](C)[C@@H](O)[C@H]1C(=O)N[C@@H](CC)C(=O)N(C)CC(=O)N(C)[C@@H](CC(C)C)C(=O)N[C@@H](C(C)C)C(=O)N(C)[C@@H](CC(C)C)C(=O)N[C@@H](C)C(=O)N[C@H](C)C(=O)N(C)[C@@H](Cc2ccccc2)C(=O)N(C)[C@@H](CC(C)C)C(=O)N(C)[C@@H](C(C)C)C(=O)N1C [MeLeu^9 MePhe] | 1.8 | 0.1 | 0.3 | 1.2 | 0.0
8 | C/C=C/C[C@@H](C)[C@@H](O)[C@H]1C(=O)N[C@@H](CC)C(=O)N(C)CC(=O)N(C)[C@@H](CC(C)C)C(=O)N[C@@H](C(C)C)C(=O)N(C)[C@@H](CC(C)C)C(=O)N[C@@H](C)C(=O)N[C@H](C)C(=O)N(C)[C@@H](CC(C)C)C(=O)N(C)[C@@H](CC(C)C)C(=O)N(C)[C@@H]([C@@H](C)CC)C(=O)N1C [MeVal^11 MeIle] | 0.3 | 0.0 | 0.4 | 0.2 | 0.0
9 | C/C=C/C[C@@H](C)[C@@H](O)[C@H]1C(=O)N[C@@H](CC)C(=O)N(C)CC(=O)N(C)[C@@H](CC(C)C)C(=O)N[C@@H](C(C)C)C(=O)N(C)[C@@H](CC(C)C)C(=O)N[C@@H](C)C(=O)N[C@H](C)C(=O)N(C)[C@@H](CC(C)C)C(=O)N(C)[C@@H](CC(C)C)C(=O)N(C)[C@@H]([C@H](C)CC)C(=O)N1C [MeVal^11 aMeIle] | 0.0 | 0.3 | 0.0 | < 0.0 | 0.3
10 | C/C=C/C[C@@H](C)[C@@H](O)[C@H]1C(=O)N[C@@H](CC)C(=O)N(C)[C@H](C)C(=O)N(C)[C@@H](CC(C)C)C(=O)N[C@@H](C(C)C)C(=O)N(C)[C@@H](CC(C)C)C(=O)N[C@@H](C)C(=O)N[C@H](C)C(=O)N(C)[C@@H](CC(C)C)C(=O)N(C)[C@@H](CC(C)C)C(=O)N(C)[C@@H](C(C)C)C(=O)N1C [Sar^3 D-MeAla] | 1.2 | 1.4 | 1.2 | < 0.0 | 1.3
11 | C/C=C/C[C@@H](C)[C@@H](O)[C@H]1C(=O)N[C@@H](CC)C(=O)N(C)C(COC(C)=O)C(=O)N(C)[C@@H](CC(C)C)C(=O)N[C@@H](C(C)C)C(=O)N(C)[C@@H](CC(C)C)C(=O)N[C@@H](C)C(=O)N[C@H](C)C(=O)N(C)[C@@H](CC(C)C)C(=O)N(C)[C@@H](CC(C)C)C(=O)N(C)[C@@H](C(C)C)C(=O)N1C (stereo partly shown) [Sar^3 O-Acetyl-MeSer] | 1.5 | 2.2 | 1.2 | 0.4 | 2.1
